The text below walks through data of patent publication US5120870A, “Emulsion of lipid containing a prostaglandin analogue” (priority 1989, dated 1992).

The nature of data set [1]: Storage stability of the emulsion (HPLC). It is filed as physicochemical. The following applies: for Storage stability: Decomposition reaction rate constant: 40° C., calculated from change with time of remaining rate; for Storage stability: Remaining rate: emulsion stored 4 weeks at 40° C., 40320 min. As for the experimental part:
| Storage stability: | Stored for 4 weeks under a temperature condition of 40° C., and th | remaining rate (%) after the 4 weeks was measured. Further, from the | change with time of the remaining rate, the decomposition reaction rate | constant was calculated. The stability during the preparation and the remaining rate in the storage stability was measured by a separation quantitative analysis by means of high performance liquid chromatography, and the ratio of the measured amount relative to the amount at the initiation of the test was taken as the remaining rate.

The subject of another data set is platelet aggregation. The experiment in a line: Platelet aggregation inhibiting effect, ADP-induced, platelet rich plasma. It is filed as cell-based. The following applies: 20 μM ADP, relative to physiological saline. The procedure:
Further, the platelet aggregation inhibiting effects were measured as follows, and the results are shown also in Table 3.
Using sodium citrate (3.8%), peripheral blood was collected (blood 9, sodium citrate 1). This peripheral blood was subjected to centrifugal separation at 1000 rpm for 10 minutes to obtain a platelet rich plasma, and the rest was subjected to centrifugal separation at 3000 rpm for 20 minutes to obtain a plate poor plasma. To 225 μl of the platelet rich plasma, 50 μl of a test sample was added. One minute later, platelet aggregation was induced with 20 μMADP solution 25, whereupon the aggregation inhibitory rate (%) was calculated based on the aggregation rate when a physiological saline solution was added instead of the test sample, being rated as 100%.

The nature of data set [2]: Stability of the PG analogue during the preparation of the emulsion (HPLC). It is filed as physicochemical. The conditions noted are these: lipid emulsion prepared at 90° C., final concentration 5 μg/ml. The procedure:
To 500 μg of the PG analogue of the formula (2) of the present invention produced as described above, 10 g of purified soybean oil and 1.2 g of purified yolk lecitin were added, and the mixture was melted under heating at 90° C. by means of a homogenizer at 90° C. Then, 2.5 g of glycerol and 90 ml of distilled water for injection were added thereto, followed by rough emulsification by means of a homogenizer at […]. The product is then emulsified by means of a manton gaulin type homogenizer to obtain an emulsion having a final concentration of 5 μg/ml.
The stability of the PG analogue of the present invention during the preparation of the emulsion and the storage stability of the emulsion were measured, and the results are shown in Table 3.
The stability during the preparation and the remaining rate in the storage stability was measured by a separation quantitative analysis by means of high performance liquid chromatography, and the ratio of the measured amount relative to the amount at the initiation of the test was taken as the remaining rate.

Data set [3] has as its system human platelet aggregation. The conditions noted are these: Table 1(b), activity of PGE1 rated 100, cited from earlier work; for Inhibitory effects against human platelet aggregation (relative activity): (no incubation stated).
For data set [4] the following is noted: 1.6% BSA-saline solution, mean ± SE, n = 4-7, cited from earlier work.

As for `CCCCOC(=O)CCCCCCC1=C(OC(C)=O)C[C@@H](O)[C@@H]1/C=C/[C@@H](O)C[C@@H](C)CCCC` [Example 1, butyl 9-actoxy-11α,15S-dihyroxy-17S,20-dimethylprosta-8-13E-diene-1-oate], in data set [1], the “Storage stability: Decomposition reaction rate constant” value was 6.20 d^-1 × 10^3 and the “Storage stability: Remaining rate” value was found to be 84.8%. Also, the “Platelet aggregation inhibitory effects” value in the data set on platelet aggregation amounted to 37%. For the same molecule, the “Stability during the preparation” value in data set [2] is 75.6%.

On to `CCCCC[C@H](O)/C=C/[C@@H]1C(CCCCCCC(=O)OC)=C(OC(C)=O)C[C@H]1O` [Example 2, methyl 9-acetoxy-11α,15S-dihydroxyprosta-9,13E-diene-1-oate], for which, in data set [1], the “Storage stability: Decomposition reaction rate constant” value is listed as 11.8 d^-1 × 10^3 and the “Storage stability: Remaining rate” value was 72.7%. Besides, in the data set with platelet aggregation, the “Platelet aggregation inhibitory effects” value amounted to 100%. The “Stability during the preparation” value in data set [2] came to 70.4%.

Take `CCCCC[C@H](O)/C=C/[C@@H]1C(CCCCCCC(=O)OCCCC)=C(OC(C)=O)C[C@H]1O` [Example 3, butyl 9-acetoxy-11α,15S-dihydroxyprosta-8,13E-diene-1-oate]: in data set [1], the “Storage stability: Decomposition reaction rate constant” value was 8.30 d^-1 × 10^3 and the “Storage stability: Remaining rate” value came out at 80.1%. The “Platelet aggregation inhibitory effects” value with platelet aggregation came to 93%. Moreover, in data set [2], the “Stability during the preparation” value was determined as 72.1%.

For the molecule `CCCC[C@H](C)C[C@H](O)/C=C/[C@@H]1C(CCCCCCC(=O)OC)=C(OC(C)=O)C[C@H]1O` [Example 4, methyl 9-acetoxy-11α,15S-dihyroxy-17S,20-dimethylprosta-8,13E-diene-1-oate], in data set [1], the “Storage stability: Decomposition reaction rate constant” value is recorded as 8.87 d^-1 × 10^3 and the “Storage stability: Remaining rate” value was 77.9%. Also, in the data set on platelet aggregation, the “Platelet aggregation inhibitory effects” value is 44%. In addition, the “Stability during the preparation” value in data set [2] is 68.3%.

In the case of `CCCCC[C@H](O)/C=C/[C@H]1[C@H](O)CC(=O)[C@@H]1CCCCCCC(=O)OCCCC` [PGE1 butyl ester], in data set [3], the “Inhibitory effects against human platelet aggregation (relative activity)” value is 29 and the “Inhibitory effects against human platelet aggregation (relative activity), after incubating in human serum for 20 min” value is on record as 89. Also, in data set [4], the “% of PGE1 (or ester) liberated from LM, 1 min incubation” value (“% of PGE1 … 1 min incubation” below) is given as 60.5 ± 4.0% and the “% of PGE1 (or ester) liberated from LM, 10 min incubation” value (“% of PGE1 … 10 min incubation” below) is on record as 65.3 ± 5.6%.

Regarding `CCCCC[C@H](O)/C=C/[C@H]1[C@H](O)CC(=O)[C@@H]1CCCCCCC(=O)OCC` [PGE1 ethyl ester], in data set [3], the “Inhibitory effects against human platelet aggregation (relative activity)” value is given as 20 and the “Inhibitory effects against human platelet aggregation (relative activity), after incubating in human serum for 20 min” value is on record as 28. Also, in data set [4], the “% of PGE1 … 1 min incubation” value is reported as 82.0 ± 8.8% and the “% of PGE1 … 10 min incubation” value is 125.4 ± 11.7%.

Take `CCCCC[C@H](O)/C=C/[C@H]1[C@H](O)CC(=O)[C@@H]1CCCCCCC(=O)OC` [PGE1 methyl ester]: in data set [3], the “Inhibitory effects against human platelet aggregation (relative activity)” value was 23 and the “Inhibitory effects against human platelet aggregation (relative activity), after incubating in human serum for 20 min” value is listed as 51. Besides, in data set [4], the “% of PGE1 … 1 min incubation” value was 82.5 ± 3.8% and the “% of PGE1 … 10 min incubation” value is recorded as 80.4 ± 2.9%.

Take `CCCCCCCCOC(=O)CCCCCC[C@H]1C(=O)C[C@@H](O)[C@@H]1/C=C/[C@@H](O)CCCCC` [PGE1 octyl ester]: the “Inhibitory effects against human platelet aggregation (relative activity), after incubating in human serum for 20 min” value in data set [3] is given as 4.

`CCCCC[C@H](O)/C=C/[C@H]1[C@H](O)CC(=O)[C@@H]1CCCCCCC(=O)O` [PGE1]: in data set [1], the “Storage stability: Decomposition reaction rate constant” value is 113 d^-1 × 10^3 and the “Storage stability: Remaining rate” value came out at 4.6%. For the same molecule, the “Platelet aggregation inhibitory effects” value in the data set on platelet aggregation worked out at 55%. The “Stability during the preparation” value in data set [2] is on record as 43.9%.
